Read-outs that look alike come from different tables or passages of the source.
Tests used:
[1] = tested on: Key Grass and Sedge Weeds as well as Grass Crops; assay: Post-emergent Test II herbicidal activity (Table 6); format: in vivo; settings: post-emergence, 336 h; for pest or weed control at 70 g/ha: application rate 70 g ai/ha; for pest or weed control at 140 g/ha: application rate 140 g ai/ha
Procedure, shortened: (§1)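 Spray rates: a highest rate plus ½×, ¼×, ⅛×, 1/16×, all delivered at 187 L/ha to plants at the first–second true leaf stage. Readout is a visual percent injury score at 14 d, where 100 means complete kill.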

[2] = tested on: Key Broadleaf Weed and Crop Species; assay: Post-emergent Test II herbicidal activity (Table 5); format: in vivo; settings: post-emergence, 336 h, post-emergent, 14 days after application; for pest or weed control at 70 g/ha: application rate 70 g ai/ha; for pest or weed control at 140 g/ha: application rate 140 g ai/ha
Procedure, shortened: as §1

[3] = CYPES: yellow nutsedge (Cyperus esculentus), read-out: Visual Growth Reduction (%) 14 Days After Application, CYPES
[4] = DIGSA: crabgrass (Digitaria sanguinalis), read-out: Visual Growth Reduction (%) 14 Days After Application, DIGSA
[5] = ECHCG: barnyardgrass (Echinochloa crus-galli), read-out: Visual Growth Reduction (%) 14 Days After Application, ECHCG
[6] = ORYSA: rice (Oryza sativa), read-out: Visual Growth Reduction (%) 14 Days After Application, ORYSA
[7] = SETFA: giant foxtail (Setaria faberi), read-out: Visual Growth Reduction (%) 14 Days After Application, SETFA
[8] = SORVU: grain sorghum (Sorghum vulgare), read-out: Visual Growth Reduction (%) 14 Days After Application, SORVU
[9] = TRZSS (wheat, Triticum aestivum), read-out: Visual Growth Reduction (%) 14 Days After Application, TRZSS
[10] = ZEAMX: maize, corn (Zea mays), read-out: Visual Growth Reduction (%) 14 Days After Application, ZEAMX
[11] = ABUTH: velvetleaf (Abutilon theophrasti), read-out: Visual Growth Reduction (%) 14 Days After Application, ABUTH
[12] = AMARE: redroot pigweed (Amaranthus retroflexus), read-out: Visual Growth Reduction (%) 14 Days After Application, AMARE
[13] = BRSNN: oilseed-rape, canola (Brassica napus), read-out: Visual Growth Reduction (%) 14 Days After Application, BRSNN
[14] = CHEAL: lambsquarters (Chenopodium album), read-out: Visual Growth Reduction (%) 14 Days After Application, CHEAL
[15] = EPHHL: wild poinsettia (Euphorbia heterophylla), read-out: Visual Growth Reduction (%) 14 Days After Application, EPHHL
[16] = HELAN: sunflower (Helianthus annuus), read-out: Visual Growth Reduction (%) 14 Days After Application, HELAN
[17] = VIOTR: wild pansy (Viola tricolor), read-out: Visual Growth Reduction (%) 14 Days After Application, VIOTR

Row | SMILES | melting point [°C] | pest or weed control at 70 g/ha [1, 3] [%] | pest or weed control at 140 g/ha [1, 3] [%] | pest or weed control at 70 g/ha [1, 4] [%] | pest or weed control at 140 g/ha [1, 4] [%] | pest or weed control at 70 g/ha [1, 5] [%] | pest or weed control at 140 g/ha [1, 5] [%] | pest or weed control at 70 g/ha [1, 6] [%] | pest or weed control at 140 g/ha [1, 6] [%] | pest or weed control at 70 g/ha [1, 7] [%] | pest or weed control at 140 g/ha [1, 7] [%] | pest or weed control at 70 g/ha [1, 8] [%] | pest or weed control at 140 g/ha [1, 8] [%] | pest or weed control at 70 g/ha [1, 9] [%] | pest or weed control at 140 g/ha [1, 9] [%] | pest or weed control at 70 g/ha [1, 10] [%] | pest or weed control at 140 g/ha [1, 10] [%] | pest or weed control at 70 g/ha [2, 11] [%] | pest or weed control at 140 g/ha [2, 11] [%] | pest or weed control at 70 g/ha [2, 12] [%] | other results
1 | COc1c(N)nc(-c2cc(F)c(C)cc2F)nc1C(=O)O [Compound 201] | 135.9 to 137.7 | 0 to 29 | 0 to 29 | 0 to 29 | 0 to 29 | 60 to 74 | 45 to 59 | 0 to 29 | 0 to 29 | 0 to 29 | 30 to 44 | 0 to 29 | 45 to 59 | 0 to 29 | 0 to 29 | 0 to 29 | 0 to 29 | 30 to 44 | 60 to 74 | 30 to 44 | pest or weed control at 140 g/ha [2, 12]: 60 to 74%; pest or weed control at 70 g/ha [2, 13]: 95 to 100%; pest or weed control at 140 g/ha [2, 13]: 95 to 100%; pest or weed control at 70 g/ha [2, 14]: 85 to 94%; pest or weed control at 140 g/ha [2, 14]: 75 to 84%; pest or weed control at 70 g/ha [2, 15]: 45 to 59%; pest or weed control at 140 g/ha [2, 15]: 85 to 94%; pest or weed control at 70 g/ha [2, 16]: 60 to 74%; pest or weed control at 140 g/ha [2, 16]: 75 to 84%; pest or weed control at 70 g/ha [2, 17]: 0 to 29%; pest or weed control at 140 g/ha [2, 17]: 0 to 29%
2 | Cc1cc(F)c(-c2nc(C(=O)O)c(Cl)c(N)c2F)cc1F [Compound 194] | 167.4 to 170.2 | 0 to 29 | 0 to 29 | 0 to 29 | 0 to 29 | 0 to 29 | 0 to 29 | 0 to 29 | 0 to 29 | 45 to 59 | 60 to 74 | 0 to 29 | 0 to 29 | 0 to 29 | 0 to 29 | 0 to 29 | 0 to 29 | 60 to 74 | 75 to 84 | 95 to 100 | pest or weed control at 140 g/ha [2, 12]: 95 to 100%; pest or weed control at 70 g/ha [2, 13]: 60 to 74%; pest or weed control at 140 g/ha [2, 13]: 75 to 84%; pest or weed control at 70 g/ha [2, 14]: 75 to 84%; pest or weed control at 140 g/ha [2, 14]: 85 to 94%; pest or weed control at 70 g/ha [2, 15]: 85 to 94%; pest or weed control at 140 g/ha [2, 15]: 85 to 94%; pest or weed control at 70 g/ha [2, 16]: 85 to 94%; pest or weed control at 140 g/ha [2, 16]: 95 to 100%; pest or weed control at 70 g/ha [2, 17]: 0 to 29%; pest or weed control at 140 g/ha [2, 17]: 0 to 29%
